# Test results as given in US4599362A, “2-aryl-ethyl ether derivatives and insecticidal and acaricidal agents containing said derivatives” (priority 1980, dated 1986).
# Like-named read-outs stand apart in the source and are kept apart here.
# Legend:
# [1] = tested on: two-spotted spider mite; experiment: Test 6: Effect on Two-Spotted Spider mite adults; format: in vivo; details: 500 ppm, adults, 24 hours; for mortality at 500 ppm: Tetranychus urticae, read-out: Mortality (%)
# In short: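 Kidney bean leaf discs (15 mm) on wet cotton, each holding 10 adult mites, sprayed with 3 ml of a 500 ppm dilution of an emulsifiable concentrate. Kept at 25° C; dead adults counted after 24 hours to give mortality, averaged over three discs.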
# [2] = tested on: German cockroach; experiment: Test 7: Effect on German Cockroach; format: in vivo; details: Blattella germanica, male adults, 24 hours, agonized and killed; for mortality at 10 mg/m2: 10 mg/m^2; for mortality at 50 mg/m2: 50 mg/m^2
# In short: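 Dish bottoms were treated with 50 or 10 mg/m^2 of test compound and air-dried, then 10 male adult cockroaches were released per dish and held at 25° C. Agonized and killed adults were counted after 24 hours, averaged over two dishes.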
# [3] = Test 8: Fish Toxicity; format: in vivo; details: carp, water, carps, concentration at which 1/2 of the test fishes were killed, read-out: Fish Toxicity, TLm48
# Method: (§1) A water tank having a width of 60 cm, a length of 30 cm and a height of 40 cm was filled with water, and 10 yearling carps having a body length of about 5 cm were set free in the tank and adapted to the environment in the tank. A test compound was applied so that the concentration in water was 10, 1, or 0.1 ppm. After 48 hours, the numbers of killed and living carps were counted and the influences on the fishes were examined.
# [4] = Test 9: Toxicity Test (acute oral, mice); details: mouse, in vivo, po
# In short: (§2)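 Compound dissolved or suspended in corn oil was given orally to male mice of 19–23 g body weight, at 0.2 ml per 10 g. Deaths and effects were recorded after 7 days.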
# [5] = tested on: green peach aphids; experiment: Test 5: Effect on green peach Aphid; format: in vivo; details: Myzus persicae, 24 hours, mortality class, read-out: Insecticidal Activity
# [6] = tested on: third-instar larvae of diamond back moth; experiment: Test 4: Effect on Diamond Back Moth; format: in vivo; details: Plutella xylostella, 24 hours
# In short: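 Emulsifiable concentrate diluted in water to 100 or 20 ppm and sprayed at 3 ml per cup onto cabbage leaves holding 10 third-instar diamondback moth larvae. Dead and living larvae counted after 24 h; mortality averaged over three cups.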
# [7] = tested on: Second-instar and fifth-instar larvae of tobacco cutworm; experiment: Test 2: Tobacco Cutworm Larva Dipping Test; format: in vivo
# [8] = tested on: second-instar larvae of tobacco cutworm; experiment: whole plant or invertebrate; format: in vivo; details: foliar
# Method: To a mixture of 20 parts of the compound of the present invention and 20 parts of Sorpol SM-200 (registered trademark for the product supplied by Toho Chemical Industrial Co., Ltd.) was added 60 parts of xylol, and the mixture was sufficiently blended. The obtained emulsifiable concentrate was diluted at a predetermined concentration with distilled water, and the obtained dilution was used.
# An emulsifiable concentrate of a test compound prepared according to the method described in Formulation Example 1 was diluted to a concentration of 100 or 20 ppm. Among the compounds of the present invention, the following compounds were used as the test compounds: (1), (l ), (3), (4), (6), (8), (9), (10), (11), (14), (15), (16), (17), (18), (19), (20), (21), (24), (27), (28), (29), (30), (33), (34), (35), (36), (38), (39), (40), (41), (42), (43), (47), (48), (50), (51), (52), (53), (54), (55), (56), (59), (60), (62), (63), (64), (65), (66), (67) and (68). Sweetpotato leaves were immersed in the dilution for 10 seconds, air-dried and placed in a plastic cup having a diameter of 10 cm. Then second-instar larvae of tobacco cutworm were set free in the cup. The cup was allowed to stand still in a thermostat chamber maintained at 25° C. After 48 hours, the numbers of killed and living larvae were counted and the mortality was calculated. The obtained result was expressed by an average value obtained from the mortality calculated in three test cups. Compounds of (b), (f) and (h) were tested as comparative compounds in the same manner as the compounds of the present invention.
# [9] = tested on: yearling carps; experiment: Test 8: Fish Toxicity; format: in vivo; details: 48 hours, concentration at which 1/2 of the test fishes were killed
# Method: as §1
# [10] = tested on: sensitive green rice leafhopper (collected at Chigasaki); experiment: Test 3: Effect on Sensitive Green Rice Leafhopper; format: in vivo; details: female adults, 24 hours; for mortality at 20 ppm / mortality at 100 ppm: Nephotettix cincticeps
# In short: (§3)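 Rice seedlings (2–3 leaves) sprayed with emulsifiable-concentrate dilutions at 100 or 20 ppm, 3 ml per pot, air-dried, then infested with 10 female adults per pot. Mortality counted after 24 h and averaged over three pots.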
# [11] = tested on: male mice; experiment: Test 9: Toxicity Test (acute oral, mice); details: male mice; oral, corn oil; 7 days
# In short: as §2
# [12] = tested on: resistant green rice leafhopper (collected at Nakagawara); experiment: Test 3: Effect on Resistant Green Rice Leafhopper; format: in vivo, Nephotettix cincticeps Uhler; details: for Mortality (%) Green Rice Leafhopper Collected at Nakagawara: resistant, female adults, 24 hours; for mortality at 20 ppm / mortality at 100 ppm: Nephotettix cincticeps, 24 h, read-out: Mortality (%) Green Rice Leafhopper Collected at Nakagawara
# In short: as §3
# [13] = 20 ppm, second-instar larvae, 24 hours, read-out: Mortality (%) Second-Instar Larvae
# [14] = 100 ppm, second-instar larvae, 24 hours, read-out: Mortality (%) Second-Instar Larvae
# [15] = topical, 24 h, read-out: Mortality (%) Fifth-Instar Larvae
# [16] = 20 ppm, second-instar larvae, 48 hours, read-out: Mortality (%)
Compound,mortality at 500 ppm [1],mortality at 10 mg/m2 [2],mortality at 50 mg/m2 [2],LC50 at 48 h [3],LD50 at 168 h [4],mortality at 100 ppm [5],mortality at 20 ppm [6],mortality at 100 ppm [6],"mortality at 20 ppm [7, 13]","mortality at 100 ppm [7, 14]","mortality at 20 ppm [7, 15]","mortality at 100 ppm [7, 15]",further results
"CC(C)(COCc1ccc(F)c(Oc2ccc(F)cc2)c1)c1ccc(Cl)cc1 [Compound 1, 3-(4-Fluorophenoxy)-4-fluorobenzyl 2-(4-chlorophenyl)-2-methylpropyl ether]",100%,100%,100%,~1 µg/mL,> 500 mg/kg,> 95%,100%,100%,80%,90%,70%,80%,–
"CC(C)C(COCc1cccc(Oc2ccccc2)c1)c1ccc(Cl)cc1 (stereo not drawn) [(b), reference compound]",20%,–,–,–,–,–,10%,30%,–,–,–,–,"mortality at 100 ppm ([8]; 48 h): 50%; mortality at 20 ppm [8, 16]: 0%"
"3-phenoxy-α-cyanobenzyl 2,2-dimethyl-3-(2,2-dichlorovinyl)-cyclopropano-1-carboxylate [(i), reference compound]",–,–,–,–,–,–,–,–,–,–,–,–,"Fish Toxicity, TLm48 [9]: below 0.005 ppm"
"COP(=O)(NC(C)=O)SC (stereo not drawn) [(h), O,S-dimethyl N-acetylphosphoroamidothiolate]",–,–,–,–,–,–,–,–,–,–,–,–,mortality at 20 ppm ([8]; 48 h): 30%; mortality at 100 ppm ([8]; 48 h): 70%
"Pyrethrin [Comparative Compound (c), reference compound]",–,–,–,–,–,–,–,–,–,–,–,–,"Mortality (%) [1]: 0%; Mortality (%) Green Rice Leafhopper Collected at Chigasaki ([10]; 20 ppm): 0%; Mortality (%) Green Rice Leafhopper Collected at Chigasaki ([10]; 100 ppm): 0%; Acute Toxicity at Oral Administration, LD-50 [11]: 340 mg/kg; Mortality (%) Green Rice Leafhopper Collected at Nakagawara ([12]; 20 ppm): 0%; Mortality (%) Green Rice Leafhopper Collected at Nakagawara ([12]; 100 ppm): 0%"
"CNC(=O)ON=C(C)SC [Comparative Compound (f), S-methyl N-(methylcarbamoyloxy)thioacetoamidate]",–,–,–,–,–,–,–,–,–,–,–,–,"mortality at 20 ppm [8, 16]: 80%; mortality at 100 ppm ([8]; 100 ppm, second-instar larvae, 48 hours, read-out: Mortality (%)): 100%"
"CCC(COCc1ccc(F)c(Oc2ccccc2)c1)c1ccc(Cl)cc1 (stereo not drawn) [Compound 6, 3-Phenoxy-4-fluorobenzyl 2-(4-chlorophenyl)-butyl ether]",100%,100%,100%,> 1 µg/mL,> 500 mg/kg,> 95%,100%,100%,90%,100%,85%,100%,mortality at 20 ppm ([10]; 20 ppm): 100%; mortality at 100 ppm ([10]; 100 ppm): 100%; mortality at 20 ppm [12]: 100%; mortality at 100 ppm [12]: 100%
"CC(C)(COCc1ccc(F)c(Oc2ccccc2)c1)c1ccc(Cl)cc1 [Compound 10, 3-phenoxy-4-fluorobenzyl 2-(4-chlorophenyl)-2-methylpropyl ether]",100%,100%,100%,> 0.1 µg/mL,> 500 mg/kg,> 95%,100%,100%,100%,100%,100%,100%,mortality at 20 ppm ([10]; 20 ppm): 100%; mortality at 100 ppm ([10]; 100 ppm): 100%; mortality at 20 ppm [12]: 100%; mortality at 100 ppm [12]: 100%
